Measured values published in US11174270B2, “Crystal form of 3,4-dihydrothieno[3,2-d]pyrimidine compound and preparation method thereof” (PHAENO THERAPEUTICS CO., LTD., priority 2018, dated 2021).

Tests used:
[1] = Plasma protein binding rate, equilibrium dialysis, human plasma; format: in vitro ADME; conditions: equilibrium dialysis 37° C. 4 hours, read-out: Plasma Protein Binding PPB bound(%) (converted)
Experimental: Determination of the Plasma Protein Binding Rate of the Compound
The protein-binding rates of the test compound in the plasma of CD-1 mice, SD rats and human were evaluated by the equilibrium dialysis method. Compound 1 was diluted into the plasma of the above three species respectively to prepare samples with a final concentration of 2 μM. The samples were then added to a 96-well equilibrium dialysis device, and dialyzed against phosphate buffer solution at 37° C. for 4 hours. Warfarin was used as a control compound in the assay. The concentrations of the test compound and warfarin in the plasma and buffer were determined by LC-MS/MS method.

HCMV (strain: GFP-AD169) = assay: Human cytomegalovirus (HCMV) transplantation model in mice; format: in vivo; conditions: NOD SCID mice, 8 mg/kg orally once per day
Experimental: Human Cytomegalovirus (HCMV) Transplantation Model in Mice
Gelatin sponge containing HCMV was transplanted into mice. After 9 days of continuous administration, the gelatin sponge was collected for plaque detection. The anti-HCMV effect of the compound in this model was evaluated by detecting the amount of HCMV in the gelatin sponge.
The animals used in the assay were NOD SCID mice (purchased from Shanghai SLAC Laboratory Animal Co., Ltd.), 5 weeks old, and male. There were 5 animals in each group. The day on which the mice were subjected to gelatin sponge transplantation was set as day 0. Human foreskin fibroblasts (HFF, MOI=0.03) were infected with HCMV (strain: GFP-AD169) in advance, and then the HFF cells infected with HCMV were added to 1 cm^2 gelatin sponges and incubated for use. The animals were anesthetized by intraperitoneal injection of pentobarbital sodium at a dose of 75 mg/kg (10 ml/kg). After the animals entered the deep anesthesia state, the treated gelatin sponges were subcutaneously transplanted into the back of the mice. From day 1 to day 9, 8 mg/kg (10 ml/kg) of compound 1 was administered orally once per day. On the day 9, four hours after the administration, the gelatin sponges were taken out and digested, and then the plaques were detected.

[2] = tested on: human cytomegalovirus (HCMV); assay: Fluorescence decay assay against human cytomegalovirus; format: cell-based; conditions: Human betaherpesvirus 5, 240 h; US3-6-EGFP-HCMV-AD169 in MRCS cells, 10 days of culture, GFP fluorescence intensity
Experimental: Fluorescence Decay Assay Against Human Cytomegalovirus
The antiviral activity of the compound against human cytomegalovirus (HCMV) was evaluated by determining the median effective concentration (EC50) value of the compound. The HCMV used in this assay was inserted with enhanced green fluorescent protein (EGFP) as a reporter gene by gene recombination, and thus the replication of the virus in cells can be reflected by the expression level of GFP. The inhibitory activity of the compound on the expression of GFP in HCMV was evaluated by determining the fluorescence intensity in the wells of different concentrations of the compound using a high-content cell analysis platform Acumen eX3.
Fluorescence Decay Assay Against HCMV
MRCS cells were inoculated into a black 96-well cell culture plate at a density of 20,000 cells per well, and then incubated overnight in a 37° C., 5% CO2 incubator. US3-6-EGFP-HCMV-AD169 viruses were added to the cell culture wells at a certain MOI (0.003 to 0.1), and incubated in a 37° C., 5% CO2 incubator for 3 hours. After adsorption of viruses, the medium containing viruses was pipetted out, and 200 μl of cell culture medium containing different concentrations of the compound (4-fold dilution, 6 test concentrations) was added. […] After 10 days of culture, the fluorescence intensity was detected with a high content cell analysis platform Acumen eX3 (TTP LabTech). […]

SMILES: COc1cc(N2CCN(C3=Nc4ccsc4[C@H](CC(=O)O)N3c3cc(C(F)(F)F)ccc3OC)C[C@H]2C)ccn1 (single isomer, unassigned) [Compound 1]
- fraction unbound at 4 h, 2 μM [1]: 0.06
- body weights of the mice (HCMV (strain: GFP-AD169); day 1 to day 9): stable
- clinical observations (HCMV (strain: GFP-AD169); day 1 to day 9): no abnormality was found
- decrease in HCMV viral load (HCMV (strain: GFP-AD169); gelatin sponge with HCMV-infected HFF, day 1 to day 9, plaque detection): 2.38 log PFU/ml
- EC50 [2]: 0.2 nM
